Test results reported in US20250120967A1, “TYROSINE KINASES INHIBITORS AND USES THEREOF” (GREAT NOVEL THERAPEUTICS BIOTECH & MEDICALS CORPORATION, priority 2023, published 2025).
Where two headings read alike, the source gives them in different places.

Tests used:
Experiment in all cases: Tyrosine kinase inhibition assay
Assay type in all cases: biochemical
BRAF = BRAF (Homo sapiens, UniProt P15056); settings: single concentration 1.0 μM, read-out: percent inhibition
Method in brief: (§1)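 Percent inhibition from a one-concentration (1.0 μM) Z′-LYTE biochemical screen at apparent-Km ATP; >80% scored as a hit.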

BRAF V599E = BRAF V599E (Homo sapiens, UniProt P15056, V600E); settings: single concentration 1.0 μM, read-out: percent inhibition
Method in brief: as §1

EPHA7 = EPHA7 (Homo sapiens, UniProt Q15375); settings: single concentration 1.0 μM, read-out: percent inhibition
Method in brief: as §1

ERBB2 (HER2) = ERBB2 (HER2) (Homo sapiens, UniProt P04626); settings: single concentration 1.0 μM, read-out: percent inhibition
Method in brief: as §1

FGFR4 = FGFR4 (Homo sapiens, UniProt P22455); settings: single concentration 1.0 μM, read-out: percent inhibition
Method in brief: as §1

LTK (TYK1) = LTK (TYK1) (Homo sapiens, UniProt P29376); settings: single concentration 1.0 μM, read-out: percent inhibition
Method in brief: as §1

MAP4K3 (GLK) = biological target: T1, MAP4K3 (GLK) (Homo sapiens, UniProt Q8IVH8); settings: single concentration 1.0 μM, read-out: percent inhibition
T1 sequence (Q8IVH8 1-894): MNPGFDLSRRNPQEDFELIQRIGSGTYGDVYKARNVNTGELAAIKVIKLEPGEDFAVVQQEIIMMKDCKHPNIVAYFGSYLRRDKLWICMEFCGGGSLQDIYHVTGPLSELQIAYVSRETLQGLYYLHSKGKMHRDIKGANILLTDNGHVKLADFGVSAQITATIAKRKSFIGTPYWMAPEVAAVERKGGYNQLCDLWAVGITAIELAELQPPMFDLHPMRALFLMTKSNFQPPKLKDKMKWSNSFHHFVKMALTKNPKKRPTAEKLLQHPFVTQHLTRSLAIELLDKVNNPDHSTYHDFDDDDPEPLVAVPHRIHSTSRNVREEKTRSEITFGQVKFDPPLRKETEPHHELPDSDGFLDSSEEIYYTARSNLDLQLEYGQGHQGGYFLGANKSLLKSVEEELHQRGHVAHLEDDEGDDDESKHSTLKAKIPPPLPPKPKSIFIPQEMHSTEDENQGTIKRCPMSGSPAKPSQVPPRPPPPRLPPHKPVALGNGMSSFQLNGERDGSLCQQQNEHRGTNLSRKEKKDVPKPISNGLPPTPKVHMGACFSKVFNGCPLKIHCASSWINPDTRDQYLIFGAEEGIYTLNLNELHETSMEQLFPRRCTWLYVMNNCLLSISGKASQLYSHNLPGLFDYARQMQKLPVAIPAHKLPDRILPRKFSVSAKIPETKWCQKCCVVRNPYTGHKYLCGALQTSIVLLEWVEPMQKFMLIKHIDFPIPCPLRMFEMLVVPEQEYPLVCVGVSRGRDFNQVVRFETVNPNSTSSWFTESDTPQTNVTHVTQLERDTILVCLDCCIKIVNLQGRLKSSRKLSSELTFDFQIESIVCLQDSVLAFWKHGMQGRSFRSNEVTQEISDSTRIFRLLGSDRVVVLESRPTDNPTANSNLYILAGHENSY
Method in brief: as §1

PEAK1 = PEAK1 (Homo sapiens, UniProt Q9H792); settings: single concentration 1.0 μM, read-out: percent inhibition
Method in brief: as §1

PIK3C2A (PI3K-C2 alpha) = PIK3C2A (PI3K-C2 alpha) (Homo sapiens, UniProt O00443); settings: single concentration 1.0 μM, read-out: percent inhibition
Method in brief: as §1

[1] = biological target: PIK3CA/PIK3R1 (p110 alpha/p85 alpha) (Homo sapiens, UniProt P42336); settings: read-out: percent inhibition
Method in brief: as §1

TNK1 = biological target: T2, TNK1 (Homo sapiens, UniProt Q13470); settings: single concentration 1.0 μM, read-out: percent inhibition
T2 sequence (Q13470 1-666): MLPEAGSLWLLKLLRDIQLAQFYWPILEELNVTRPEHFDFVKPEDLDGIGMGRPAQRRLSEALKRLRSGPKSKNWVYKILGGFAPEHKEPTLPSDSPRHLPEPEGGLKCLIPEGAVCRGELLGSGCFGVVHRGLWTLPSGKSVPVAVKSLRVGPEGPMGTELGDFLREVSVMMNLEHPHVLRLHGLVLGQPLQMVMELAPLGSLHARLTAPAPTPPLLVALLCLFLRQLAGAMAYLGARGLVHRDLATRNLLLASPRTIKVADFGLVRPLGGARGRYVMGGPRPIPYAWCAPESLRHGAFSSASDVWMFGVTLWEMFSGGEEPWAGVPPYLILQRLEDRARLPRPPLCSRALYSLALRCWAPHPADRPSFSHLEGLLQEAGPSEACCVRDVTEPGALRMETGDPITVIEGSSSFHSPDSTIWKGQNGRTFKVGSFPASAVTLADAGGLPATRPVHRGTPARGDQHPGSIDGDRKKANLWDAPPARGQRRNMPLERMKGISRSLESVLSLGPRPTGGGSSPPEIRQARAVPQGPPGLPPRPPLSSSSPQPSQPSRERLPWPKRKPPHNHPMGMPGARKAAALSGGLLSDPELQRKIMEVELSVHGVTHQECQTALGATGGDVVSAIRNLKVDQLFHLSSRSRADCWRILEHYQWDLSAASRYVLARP
Method in brief: as §1

YES1 = YES1 (Homo sapiens, UniProt P07947); settings: single concentration 1.0 μM, read-out: percent inhibition
Method in brief: as §1

[2] = PIK3CA/PIK3R1 (p110 alpha/p85 alpha), single concentration 1.0 μM

Sequence of ERBB2 (HER2) (P04626 23-1255): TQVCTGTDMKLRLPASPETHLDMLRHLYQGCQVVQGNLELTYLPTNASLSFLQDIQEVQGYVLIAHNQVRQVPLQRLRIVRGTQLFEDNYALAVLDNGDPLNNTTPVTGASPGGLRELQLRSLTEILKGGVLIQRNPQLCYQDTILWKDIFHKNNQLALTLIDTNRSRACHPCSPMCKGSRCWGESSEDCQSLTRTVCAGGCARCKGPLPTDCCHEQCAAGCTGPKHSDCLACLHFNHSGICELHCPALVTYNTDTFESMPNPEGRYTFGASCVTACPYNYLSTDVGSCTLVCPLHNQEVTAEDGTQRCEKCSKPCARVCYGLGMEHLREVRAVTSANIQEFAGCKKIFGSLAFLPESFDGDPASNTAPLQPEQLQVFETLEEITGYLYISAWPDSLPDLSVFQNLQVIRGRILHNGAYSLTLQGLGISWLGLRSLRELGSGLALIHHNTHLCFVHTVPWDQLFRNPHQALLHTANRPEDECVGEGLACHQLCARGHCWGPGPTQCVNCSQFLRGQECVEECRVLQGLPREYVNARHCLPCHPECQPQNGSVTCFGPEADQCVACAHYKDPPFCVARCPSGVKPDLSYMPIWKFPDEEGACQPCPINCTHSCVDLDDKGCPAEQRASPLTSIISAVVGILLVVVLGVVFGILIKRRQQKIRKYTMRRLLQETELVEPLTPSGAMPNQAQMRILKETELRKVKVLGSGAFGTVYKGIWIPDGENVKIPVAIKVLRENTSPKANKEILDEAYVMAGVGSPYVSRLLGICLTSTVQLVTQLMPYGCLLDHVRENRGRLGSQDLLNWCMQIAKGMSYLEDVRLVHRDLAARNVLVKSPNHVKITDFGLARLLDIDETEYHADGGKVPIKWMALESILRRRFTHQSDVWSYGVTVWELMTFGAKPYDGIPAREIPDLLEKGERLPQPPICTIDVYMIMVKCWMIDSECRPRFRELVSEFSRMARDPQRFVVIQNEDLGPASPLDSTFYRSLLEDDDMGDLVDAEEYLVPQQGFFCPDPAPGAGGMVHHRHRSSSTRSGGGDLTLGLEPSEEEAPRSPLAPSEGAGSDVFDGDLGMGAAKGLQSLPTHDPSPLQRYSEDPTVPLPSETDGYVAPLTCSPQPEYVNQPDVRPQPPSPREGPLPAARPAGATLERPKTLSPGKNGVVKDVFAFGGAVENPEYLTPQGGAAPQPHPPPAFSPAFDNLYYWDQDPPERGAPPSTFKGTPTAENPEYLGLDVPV
Sequence of PIK3CA/PIK3R1 (p110 alpha/p85 alpha) (P42336 whole entry): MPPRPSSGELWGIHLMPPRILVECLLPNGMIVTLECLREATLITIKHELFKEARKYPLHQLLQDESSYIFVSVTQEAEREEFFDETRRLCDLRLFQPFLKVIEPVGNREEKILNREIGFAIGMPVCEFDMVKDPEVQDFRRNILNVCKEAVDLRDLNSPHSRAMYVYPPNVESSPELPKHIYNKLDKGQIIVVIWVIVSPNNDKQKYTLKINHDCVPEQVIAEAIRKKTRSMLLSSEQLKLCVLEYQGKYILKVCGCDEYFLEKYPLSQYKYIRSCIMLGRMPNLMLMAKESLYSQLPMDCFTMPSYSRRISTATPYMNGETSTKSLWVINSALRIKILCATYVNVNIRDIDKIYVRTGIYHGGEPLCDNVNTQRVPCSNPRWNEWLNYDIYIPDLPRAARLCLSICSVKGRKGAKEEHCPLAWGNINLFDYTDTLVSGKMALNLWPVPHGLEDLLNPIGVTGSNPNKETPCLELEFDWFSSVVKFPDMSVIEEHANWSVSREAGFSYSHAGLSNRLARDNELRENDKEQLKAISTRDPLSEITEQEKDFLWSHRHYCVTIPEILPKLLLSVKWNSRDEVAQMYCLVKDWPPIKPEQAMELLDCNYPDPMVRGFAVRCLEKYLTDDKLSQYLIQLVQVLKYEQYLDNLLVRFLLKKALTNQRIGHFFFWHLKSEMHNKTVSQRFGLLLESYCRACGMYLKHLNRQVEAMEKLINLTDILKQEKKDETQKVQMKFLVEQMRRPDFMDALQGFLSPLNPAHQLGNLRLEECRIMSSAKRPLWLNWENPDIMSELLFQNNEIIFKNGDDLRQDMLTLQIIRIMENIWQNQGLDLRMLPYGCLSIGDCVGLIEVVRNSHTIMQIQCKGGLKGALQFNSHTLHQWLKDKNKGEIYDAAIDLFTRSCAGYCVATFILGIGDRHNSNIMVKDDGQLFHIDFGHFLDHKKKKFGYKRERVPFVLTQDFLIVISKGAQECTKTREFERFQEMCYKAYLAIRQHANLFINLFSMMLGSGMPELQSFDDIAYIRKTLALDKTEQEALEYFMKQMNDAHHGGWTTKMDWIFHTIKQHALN
Sequence of PIK3CA/PIK3R1 (p110 alpha/p85 alpha) (P27986 whole entry partner): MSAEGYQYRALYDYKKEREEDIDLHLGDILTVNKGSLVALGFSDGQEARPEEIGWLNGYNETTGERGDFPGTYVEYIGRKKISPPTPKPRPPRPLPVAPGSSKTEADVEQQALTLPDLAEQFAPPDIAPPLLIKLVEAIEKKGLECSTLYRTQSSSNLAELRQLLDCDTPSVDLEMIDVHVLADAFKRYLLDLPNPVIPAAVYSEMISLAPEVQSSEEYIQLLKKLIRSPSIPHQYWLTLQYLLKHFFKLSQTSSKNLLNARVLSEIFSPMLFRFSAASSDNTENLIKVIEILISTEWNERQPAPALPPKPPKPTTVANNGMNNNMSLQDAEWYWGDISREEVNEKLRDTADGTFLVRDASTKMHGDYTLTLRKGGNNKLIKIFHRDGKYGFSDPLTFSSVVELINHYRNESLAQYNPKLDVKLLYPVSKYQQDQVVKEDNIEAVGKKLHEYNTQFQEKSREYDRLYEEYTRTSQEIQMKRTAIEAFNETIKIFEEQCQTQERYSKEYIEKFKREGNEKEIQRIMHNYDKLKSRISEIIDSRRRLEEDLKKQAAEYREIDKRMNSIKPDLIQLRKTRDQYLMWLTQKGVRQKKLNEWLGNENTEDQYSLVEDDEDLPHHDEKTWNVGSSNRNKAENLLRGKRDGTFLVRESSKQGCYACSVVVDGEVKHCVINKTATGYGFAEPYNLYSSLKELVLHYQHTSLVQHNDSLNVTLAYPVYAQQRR
Sequence of BRAF V599E (P15056 whole entry V600E): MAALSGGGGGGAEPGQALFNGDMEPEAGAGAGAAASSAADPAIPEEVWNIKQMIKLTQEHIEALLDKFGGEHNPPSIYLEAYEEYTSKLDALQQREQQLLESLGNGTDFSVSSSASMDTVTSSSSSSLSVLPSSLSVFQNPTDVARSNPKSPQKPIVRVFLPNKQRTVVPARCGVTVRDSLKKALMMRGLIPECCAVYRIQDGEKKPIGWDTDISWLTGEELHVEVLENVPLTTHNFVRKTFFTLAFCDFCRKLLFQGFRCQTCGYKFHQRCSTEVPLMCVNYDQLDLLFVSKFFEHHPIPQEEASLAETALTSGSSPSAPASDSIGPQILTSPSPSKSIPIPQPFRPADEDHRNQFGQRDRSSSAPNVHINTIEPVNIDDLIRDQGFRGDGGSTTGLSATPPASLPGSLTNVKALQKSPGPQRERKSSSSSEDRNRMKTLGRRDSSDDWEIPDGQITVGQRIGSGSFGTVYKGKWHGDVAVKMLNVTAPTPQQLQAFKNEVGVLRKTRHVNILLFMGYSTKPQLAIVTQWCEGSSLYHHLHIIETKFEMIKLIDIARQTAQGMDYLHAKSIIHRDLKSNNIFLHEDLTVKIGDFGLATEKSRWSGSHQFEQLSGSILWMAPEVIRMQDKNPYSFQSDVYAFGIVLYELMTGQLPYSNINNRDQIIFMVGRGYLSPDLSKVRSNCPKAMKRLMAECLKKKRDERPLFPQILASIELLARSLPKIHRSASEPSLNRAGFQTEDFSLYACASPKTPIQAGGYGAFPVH
Sequence of EPHA7 (Q15375 28-998): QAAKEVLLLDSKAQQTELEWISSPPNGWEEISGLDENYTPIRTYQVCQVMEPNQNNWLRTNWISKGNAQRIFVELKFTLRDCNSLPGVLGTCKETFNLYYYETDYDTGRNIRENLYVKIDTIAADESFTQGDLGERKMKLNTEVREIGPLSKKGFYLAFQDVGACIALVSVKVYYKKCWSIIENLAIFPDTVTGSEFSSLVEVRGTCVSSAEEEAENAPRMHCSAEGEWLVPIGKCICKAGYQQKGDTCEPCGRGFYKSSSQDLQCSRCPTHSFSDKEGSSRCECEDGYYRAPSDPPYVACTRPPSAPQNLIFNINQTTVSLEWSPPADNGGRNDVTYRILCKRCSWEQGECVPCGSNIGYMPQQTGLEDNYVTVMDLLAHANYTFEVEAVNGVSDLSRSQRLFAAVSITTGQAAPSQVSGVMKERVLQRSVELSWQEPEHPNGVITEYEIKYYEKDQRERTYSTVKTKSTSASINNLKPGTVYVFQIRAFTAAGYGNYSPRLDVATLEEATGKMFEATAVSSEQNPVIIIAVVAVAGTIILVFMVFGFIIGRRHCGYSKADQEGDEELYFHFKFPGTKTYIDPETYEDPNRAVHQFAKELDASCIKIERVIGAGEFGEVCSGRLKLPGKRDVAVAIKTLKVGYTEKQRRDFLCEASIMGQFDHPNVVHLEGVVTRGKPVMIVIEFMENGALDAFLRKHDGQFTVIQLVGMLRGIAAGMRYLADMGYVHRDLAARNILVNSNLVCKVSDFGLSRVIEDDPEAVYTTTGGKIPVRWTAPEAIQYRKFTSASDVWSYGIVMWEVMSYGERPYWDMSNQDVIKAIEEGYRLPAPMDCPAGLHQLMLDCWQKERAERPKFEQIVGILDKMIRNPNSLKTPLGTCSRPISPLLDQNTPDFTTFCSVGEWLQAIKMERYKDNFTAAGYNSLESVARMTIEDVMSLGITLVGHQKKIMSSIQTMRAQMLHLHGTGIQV
Sequence of BRAF (P15056 whole entry): as the sequence (P15056 whole entry V600E) above, with E600V counted along it

With `COc1cc2nccc(Oc3ccc(NC(=O)C4(C(=O)Nc5ccc(F)cc5)CC4)cc3)c2cc1OC` [Cabozantinib, reference compound] the inhibition at 1 µM (BRAF) was 13%, the inhibition at 1 µM (BRAF V599E) was 24% and the inhibition at 1 µM (EPHA7) was 106%. For the same compound, the inhibition at 1 µM (ERBB2 (HER2)) was 17%, the inhibition at 1 µM (FGFR4) was -2% and the inhibition at 1 µM (LTK (TYK1)) was 20%. For the same compound, the inhibition at 1 µM (MAP4K3 (GLK)) was 48%, the inhibition at 1 µM (PEAK1) was 85% and the inhibition at 1 µM (PIK3C2A (PI3K-C2 alpha)) was 1%. For the same compound, the inhibition at 1 µM [1] was 0%, the inhibition at 1 µM (TNK1) was 74% and the inhibition at 1 µM (YES1) was 63%.
With `COc1cc2nccc(Oc3ccc(NC(=O)C4(NC(=O)c5ccc(F)cc5)CC4)cc3F)c2cc1OC` [Cbo-02, N-(1-((4-((6,7-diMethoxyquinolin-4-yl)oxy)-3-fluorophenyl)carbamoyl)cyclopropyl)-4-fluorobenzamide] the inhibition at 1 µM (BRAF) was 4%, the inhibition at 1 µM (BRAF V599E) was 1% and the inhibition at 1 µM (EPHA7) was 84%. The inhibition at 1 µM (ERBB2 (HER2)) was 50%, the inhibition at 1 µM (FGFR4) was 0% and the inhibition at 1 µM (LTK (TYK1)) was 50%. It also gave an inhibition at 1 µM (MAP4K3 (GLK)) of 43%, an inhibition at 1 µM (PEAK1) of 38% and an inhibition at 1 µM (PIK3C2A (PI3K-C2 alpha)) of 1%. It also gave an inhibition at 1 µM [1, 2] of -6%, an inhibition at 1 µM (TNK1) of 17% and an inhibition at 1 µM (YES1) of 34%.
Compound `COc1cc2nccc(Oc3ccc(NC(=O)C4(NC(=O)c5ccc(F)cc5)CC4)cc3F)c2cc1Oc1ccc(N)cc1F` [Cbo-10] has an inhibition at 1 µM (BRAF) of 4%, an inhibition at 1 µM (BRAF V599E) of 2% and an inhibition at 1 µM (EPHA7) of 98%. For the same compound, the inhibition at 1 µM (ERBB2 (HER2)) was 90%, the inhibition at 1 µM (FGFR4) was 1% and the inhibition at 1 µM (LTK (TYK1)) was 69%. For the same compound, the inhibition at 1 µM (MAP4K3 (GLK)) was 59%, the inhibition at 1 µM (PEAK1) was 55% and the inhibition at 1 µM (PIK3C2A (PI3K-C2 alpha)) was -1%. It also gave an inhibition at 1 µM [1, 2] of 10%, an inhibition at 1 µM (TNK1) of 39% and an inhibition at 1 µM (YES1) of 64%.
`COc1cc2nccc(Oc3ccc(NC(=O)C4(NC(=O)c5ccc(F)cc5)CC4)cc3F)c2cc1Oc1c(F)cc(N)cc1F` [Cbo-14] showed an inhibition at 1 µM (BRAF) of 1%, an inhibition at 1 µM (BRAF V599E) of -3% and an inhibition at 1 µM (EPHA7) of 101%. For the same compound, the inhibition at 1 µM (ERBB2 (HER2)) was 90%, the inhibition at 1 µM (FGFR4) was -1% and the inhibition at 1 µM (LTK (TYK1)) was 79%. It also gave an inhibition at 1 µM (MAP4K3 (GLK)) of 58%, an inhibition at 1 µM (PEAK1) of 64% and an inhibition at 1 µM (PIK3C2A (PI3K-C2 alpha)) of 1%. It also gave an inhibition at 1 µM [1, 2] of 3%, an inhibition at 1 µM (TNK1) of 64% and an inhibition at 1 µM (YES1) of 63%.
For `COc1cc2nccc(Oc3ccc(NC(=O)C4(C(=O)Nc5ccc(F)cc5)CC4)cc3F)c2cc1Oc1ccc(N)cc1F` [Cbo-23], the inhibition at 1 µM (BRAF) was 3%, the inhibition at 1 µM (BRAF V599E) was 5% and the inhibition at 1 µM (EPHA7) was 100%. The inhibition at 1 µM (ERBB2 (HER2)) was 54%, the inhibition at 1 µM (FGFR4) was 13% and the inhibition at 1 µM (LTK (TYK1)) was 55%. It also gave an inhibition at 1 µM (MAP4K3 (GLK)) of 41%, an inhibition at 1 µM (PIK3C2A (PI3K-C2 alpha)) of -9% and an inhibition at 1 µM [1, 2] of 4%. It also gave an inhibition at 1 µM (TNK1) of 92% and an inhibition at 1 µM (YES1) of 94%.
